# Source: patent US11685732B2, “MYST family histone acetyltransferase inhibitors” (Epizyme, Inc., priority 2017, dated 2023)
# Like-named read-outs stand apart in the source and are kept apart here.
# Experiments:
# KAT-7 = KAT-7 (Homo sapiens (Human), UniProt O95251); assay: KAT-7 biochemical inhibition assay (SAMDI mass spectrometry)
# Summary of the method: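 KAT-7 (6 nM) was pre-incubated with serially diluted compound (2% DMSO) in Tris pH 8.0 with DTT. Reaction with 1 μM peptide and 2 μM acetyl-CoA ran 120 min at 25 °C and was stopped with 0.5% formic acid. Acetylation was read by SAMDI-TOF mass spectrometry to give IC50.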
# KAT-6A = KAT-6A (Homo sapiens (Human), UniProt Q92794); assay: KAT-6A biochemical inhibition assay (SAMDI mass spectrometry)
# Summary of the method: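 Enzyme (12.5 nM final) pre-incubated with serially diluted compounds (2% DMSO final) in 50 mM Tris pH 8.0 with Tween20, gelatin and 1 mM DTT. Reaction started with 1 μM peptide substrate and 1 μM acetyl-CoA, run 90 min at 25 °C, quenched with 0.5% formic acid, read by SAMDI-TOF mass spectrometry; IC50 derived.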
# KAT-5 = KAT-5 (Homo sapiens (Human), UniProt Q92993); assay: KAT-5 biochemical inhibition assay (SAMDI mass spectrometry)
# Summary of the method: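 KAT-5 at 9 nM final was preincubated with serially diluted compound (2% DMSO) in 50 mM Tris pH 8.0 with 1 mM DTT. Reaction ran with 1 μM peptide substrate and 0.5 μM acetyl-CoA for 90 min at 25° C, was quenched with 0.5% formic acid, and was read by SAMDI-TOF mass spectrometry.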
# KAT-8 = KAT-8 (Homo sapiens (Human), UniProt Q9H7Z6); assay: KAT-8 biochemical inhibition assay (SAMDI mass spectrometry)
# Summary of the method: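 Compounds in 2% DMSO pre-incubated with 12.5 nM enzyme in 50 mM Tris pH 8.0 with Tween20, gelatin and 1 mM DTT. Then 1 μM peptide and 5 μM acetyl-CoA were added, 90 min at 25 °C; formic acid stop and SAMDI-TOF mass spectrometry for IC50.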
# Chain of KAT-7 (O95251 other isoform, or with tags, fused parts or gaps): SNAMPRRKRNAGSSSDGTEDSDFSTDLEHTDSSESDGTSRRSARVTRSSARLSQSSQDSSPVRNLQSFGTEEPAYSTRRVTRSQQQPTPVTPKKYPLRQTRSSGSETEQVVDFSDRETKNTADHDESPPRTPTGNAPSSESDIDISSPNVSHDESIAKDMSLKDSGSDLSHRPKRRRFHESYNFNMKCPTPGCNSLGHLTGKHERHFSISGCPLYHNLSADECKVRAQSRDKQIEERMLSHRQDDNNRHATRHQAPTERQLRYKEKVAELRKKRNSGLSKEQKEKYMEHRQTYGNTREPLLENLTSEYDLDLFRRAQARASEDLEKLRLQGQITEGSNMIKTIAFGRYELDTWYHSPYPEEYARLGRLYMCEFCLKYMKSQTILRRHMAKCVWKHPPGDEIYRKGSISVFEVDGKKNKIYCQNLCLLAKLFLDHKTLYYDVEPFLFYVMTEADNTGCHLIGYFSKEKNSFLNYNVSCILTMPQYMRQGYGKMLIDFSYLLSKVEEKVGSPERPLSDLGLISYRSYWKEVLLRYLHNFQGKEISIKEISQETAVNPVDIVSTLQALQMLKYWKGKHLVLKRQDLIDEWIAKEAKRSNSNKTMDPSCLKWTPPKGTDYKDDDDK
# Chain of KAT-8 (Q9H7Z6 other isoform, or with tags, fused parts or gaps): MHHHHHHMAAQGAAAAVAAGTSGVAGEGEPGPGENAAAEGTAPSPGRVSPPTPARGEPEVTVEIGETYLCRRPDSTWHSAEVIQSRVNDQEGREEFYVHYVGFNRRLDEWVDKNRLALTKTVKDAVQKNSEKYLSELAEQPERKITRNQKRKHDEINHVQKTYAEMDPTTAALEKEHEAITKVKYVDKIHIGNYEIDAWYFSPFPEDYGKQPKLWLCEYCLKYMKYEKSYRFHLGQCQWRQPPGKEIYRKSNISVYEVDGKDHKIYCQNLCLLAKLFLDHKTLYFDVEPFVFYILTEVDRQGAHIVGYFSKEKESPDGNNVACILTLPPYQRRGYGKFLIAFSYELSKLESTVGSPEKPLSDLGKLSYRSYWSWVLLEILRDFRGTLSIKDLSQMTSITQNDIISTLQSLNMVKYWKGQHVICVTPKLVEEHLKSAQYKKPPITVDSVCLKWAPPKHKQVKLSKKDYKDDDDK
# Chain of KAT-6A (Q92794 other isoform, or with tags, fused parts or gaps): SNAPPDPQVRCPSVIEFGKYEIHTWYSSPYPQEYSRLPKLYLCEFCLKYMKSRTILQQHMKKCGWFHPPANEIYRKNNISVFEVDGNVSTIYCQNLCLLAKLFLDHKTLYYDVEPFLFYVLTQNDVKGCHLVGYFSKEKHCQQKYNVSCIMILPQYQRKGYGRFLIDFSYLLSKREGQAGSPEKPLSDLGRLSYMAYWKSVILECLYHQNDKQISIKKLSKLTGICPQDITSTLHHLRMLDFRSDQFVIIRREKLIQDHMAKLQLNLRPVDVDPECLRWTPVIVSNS
# Chain of KAT-5 (Q92993 other isoform, or with tags, fused parts or gaps): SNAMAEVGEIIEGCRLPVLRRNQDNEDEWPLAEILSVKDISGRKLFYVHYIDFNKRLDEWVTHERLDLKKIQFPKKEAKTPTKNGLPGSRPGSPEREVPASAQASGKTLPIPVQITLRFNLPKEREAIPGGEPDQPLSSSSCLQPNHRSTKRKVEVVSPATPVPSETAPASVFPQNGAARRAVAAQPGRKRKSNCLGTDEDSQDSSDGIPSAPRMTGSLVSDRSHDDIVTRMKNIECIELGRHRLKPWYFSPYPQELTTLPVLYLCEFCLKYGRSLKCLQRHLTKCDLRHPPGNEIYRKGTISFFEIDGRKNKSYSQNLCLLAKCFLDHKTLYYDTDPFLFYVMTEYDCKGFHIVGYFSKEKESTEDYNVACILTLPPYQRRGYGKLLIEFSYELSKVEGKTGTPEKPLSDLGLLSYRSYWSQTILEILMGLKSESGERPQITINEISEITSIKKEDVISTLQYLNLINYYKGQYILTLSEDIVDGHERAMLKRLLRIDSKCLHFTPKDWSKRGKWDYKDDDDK
Structure (SMILES),IC50 (KAT-7) [µM],IC50 (KAT-6A) [µM],IC50 (KAT-5) [µM],IC50 (KAT-8) [µM],"IC50 (KAT-7; Table 6, comparative compounds) [µM]","IC50 (KAT-6A; Table 6, comparative compounds) [µM]","IC50 (KAT-5; Table 6, comparative compounds) [µM]","IC50 (KAT-8; Table 6, comparative compounds) [µM]"
Cc1ncc(-c2cc(Cl)c(F)c(C(=O)NNS(=O)(=O)C3CCOCC3)c2)n1C [Compound I-54],> 100,> 100,50 to 100,> 100,–,–,–,–
COCCc1nc(-c2cc(Cl)c(F)c(C(=O)NNS(=O)(=O)C3CCOCC3)c2)cn1C [Compound I-119],10 to 50,10 to 50,10 to 50,10 to 50,–,–,–,–
"Cc1cc(-c2ccccc2)cc(C(=O)NNS(=O)(=O)CC2CCCN(C(=O)OC(C)(C)C)C2)c1F (single isomer, unassigned) [B, reference compound]",–,–,–,–,≤ 10,≤ 10,≤ 10,50 to 100
Cn1cnc(-c2cc(Cl)c(F)c(C(=O)NNS(=O)(=O)CC3CCN(C(=O)CCO)C3)c2)c1 (stereo not drawn) [Compound I-83],< 10,10 to 50,10 to 50,10 to 50,–,–,–,–
Cn1cnc(-c2cc(Cl)c(F)c(C(=O)NNS(=O)(=O)C[C@H]3CC[C@H](NC(N)=O)CC3)c2)c1 [Compound I-194],< 10,< 10,< 10,10 to 50,–,–,–,–
O=C(NNS(=O)(=O)CC1CCOCC1)c1cc(-n2ccnc2)cc(Cl)c1F [Compound I-47],> 100,50 to 100,< 10,> 100,–,–,–,–
COc1ccc(CNC(=O)N2CCC(CS(=O)(=O)NNC(=O)c3cc(-c4cn(C)cn4)cc(Cl)c3F)C2)cc1 (stereo not drawn) [Compound I-181],< 10,< 10,< 10,10 to 50,–,–,–,–
CCNC(=O)N[C@@H]1CCC[C@H](CS(=O)(=O)NNC(=O)c2cc(-c3cn(C)cn3)cc(Cl)c2F)C1 [Compound I-266],< 10,< 10,< 10,10 to 50,–,–,–,–
Cc1ccnc(-c2cc(Cl)c(F)c(C(=O)NNS(=O)(=O)CC3CCOCC3)c2)c1 [Compound I-17],< 10,< 10,< 10,> 100,–,–,–,–
Cn1cnc(-c2cc(Cl)c(F)c(C(=O)NNS(=O)(=O)N3CCOCC3)c2)c1 [Compound I-108],< 10,10 to 50,10 to 50,10 to 50,–,–,–,–
CC(C)S(=O)(=O)NNC(=O)c1cc(-c2cn(C)cn2)cc(Cl)c1F [Compound I-14],10 to 50,> 100,50 to 100,> 100,–,–,–,–
Cc1cn(-c2cc(Cl)c(F)c(C(=O)NNS(=O)(=O)CC3CCOCC3)c2)nn1 [Compound I-50],10 to 50,< 10,< 10,> 100,–,–,–,–
Cn1cnc(-c2cc(Cl)c(F)c(C(=O)NNS(=O)(=O)CC3CCCC(NC(=O)OC(C)(C)C)C3)c2)c1 (stereo not drawn) [Compound I-102],< 10,< 10,< 10,10 to 50,–,–,–,–
Cn1cnc(-c2cc(Cl)c(F)c(C(=O)NNS(=O)(=O)C[C@H]3C[C@H](N)C3)c2)c1 [Compound I-123],< 10,10 to 50,10 to 50,10 to 50,–,–,–,–
C[C@@H]1CN(C(=O)OC(C)(C)C)C[C@H]1CS(=O)(=O)NNC(=O)c1cc(-c2cn(C)cn2)cc(Cl)c1F [Compound I-267],< 10,10 to 50,< 10,10 to 50,–,–,–,–
Cc1cc(-c2cnn(C(C)C)c2)cc(C(=O)NNS(=O)(=O)C2CCCCC2)c1F [Compound I-155],10 to 50,> 100,> 100,> 100,–,–,–,–
CCNC(=O)N(C)C1CCCC(CS(=O)(=O)NNC(=O)c2cc(-c3cn(C)cn3)cc(Cl)c2F)C1 (stereo not drawn) [Compound I-293],< 10,< 10,< 10,10 to 50,–,–,–,–
O=C(NNS(=O)(=O)CC1CCCCC1)c1cc(-n2ccnc2)cc(Cl)c1F [Compound I-44],> 100,> 100,50 to 100,> 100,–,–,–,–

# Results, then the compound that gave them:
IC50 (KAT-7) [µM],IC50 (KAT-6A) [µM],IC50 (KAT-5) [µM],IC50 (KAT-8) [µM],"IC50 (KAT-7; Table 6, comparative compounds) [µM]","IC50 (KAT-6A; Table 6, comparative compounds) [µM]","IC50 (KAT-5; Table 6, comparative compounds) [µM]","IC50 (KAT-8; Table 6, comparative compounds) [µM]",Structure (SMILES)
< 10,< 10,< 10,10 to 50,–,–,–,–,COc1ccc(CN(C)C(=O)N[C@H]2C[C@@H](CS(=O)(=O)NNC(=O)c3cc(-c4cn(C)cn4)cc(Cl)c3F)C2)cc1 [Compound I-161]
< 10,< 10,< 10,10 to 50,–,–,–,–,Cn1cnc(-c2cc(Cl)c(F)c(C(=O)NNS(=O)(=O)CC3CCCc4ccccc43)c2)c1 (stereo not drawn) [Compound I-264]
< 10,< 10,< 10,10 to 50,–,–,–,–,CC(C)C(=O)NC1CCCC(CS(=O)(=O)NNC(=O)c2cc(-c3cn(C)cn3)cc(Cl)c2F)C1 (stereo not drawn) [Compound I-206]
< 10,< 10,< 10,10 to 50,–,–,–,–,CCC(=O)N[C@H]1CC[C@H](CS(=O)(=O)NNC(=O)c2cc(-c3cn(C)cn3)cc(Cl)c2F)CC1 [Compound I-195]
< 10,< 10,< 10,10 to 50,–,–,–,–,Cn1cnc(-c2cc(Cl)c(F)c(C(=O)NNS(=O)(=O)C[C@@H]3C[C@H]4CC[C@@H]3O4)c2)c1 [Compound I-299]
< 10,10 to 50,< 10,10 to 50,–,–,–,–,CNC(=O)N1CC[C@@H](CS(=O)(=O)NNC(=O)c2cc(-c3cn(C)cn3)cc(Cl)c2F)C1 [Compound I-209]
< 10,< 10,< 10,10 to 50,–,–,–,–,"Cn1cnc(-c2cc(Cl)c(F)c(C(=O)NNS(=O)(=O)CC3CCCCC3)c2)c1 [Compound I-51, N′-(3-chloro-2-fluoro-5-(1-methyl-1H-imidazol-4-yl)benzoyl)-1-cyclohexyl methanesulfonohydrazide]"
< 10,< 10,< 10,10 to 50,–,–,–,–,CN1CCN([C@H]2C[C@H](CS(=O)(=O)NNC(=O)c3cc(-c4cn(C)cn4)cc(Cl)c3F)C2)C1=O [Compound I-312]
< 10,< 10,< 10,10 to 50,–,–,–,–,Cn1cnc(-c2cc(Cl)c(F)c(C(=O)NNS(=O)(=O)C[C@H]3CC[C@@H](NC(=O)C4CCC4)CC3)c2)c1 [Compound I-246]
< 10,< 10,< 10,10 to 50,–,–,–,–,Cn1cnc(-c2cc(Cl)c(F)c(C(=O)NNS(=O)(=O)c3ccc(F)cc3)c2)c1 [Compound I-316]
< 10,< 10,< 10,10 to 50,–,–,–,–,Cn1cnc(-c2cc(Cl)c(F)c(C(=O)NNS(=O)(=O)C[C@H]3CCOC3)c2)c1 [Compound I-371]
< 10,< 10,< 10,10 to 50,–,–,–,–,Cn1cnc(-c2cc(Cl)c(F)c(C(=O)NNS(=O)(=O)c3ccccn3)c2)c1 [Compound I-330]
< 10,> 100,10 to 50,> 100,–,–,–,–,CCn1cnc(-c2cc(Cl)c(F)c(C(=O)NNS(=O)(=O)CC3CCCCC3)c2)c1C [Compound I-28]
< 10,< 10,< 10,10 to 50,–,–,–,–,CC1CCC(CS(=O)(=O)NNC(=O)c2cc(-c3cn(C)cn3)cc(Cl)c2F)CC1 (stereo not drawn) [Compound I-313]
< 10,10 to 50,< 10,10 to 50,–,–,–,–,Cn1cnc(-c2cc(Cl)c(F)c(C(=O)NNS(=O)(=O)Cc3cccnc3)c2)c1 [Compound I-282]
